“Also recorded” adds a separate entry of the source.
What was measured:
HeLa cells [1] = test: Cell adhesion experiments on lipid films of different multilayer thickness; assay type: cell-based
Description: Lipids were dissolved in ethanol and added to each channel in increasing amounts from 0.2 ng to 20 μg. Tests for cell attachment were performed by seeding HeLa cells into assay channel with varying amounts of lipid films. Cells were allowed to attach for two hours before washing the channels repeatedly 5 times. Prior to counting, cells were incubated with live-cell fluorescent dye (SYTO9, Invitrogen). The number of cells per square micron area (μm^2) that remained attached was counted manually. Experiments for cell adhesion where performed in three replicates. Values for cell density of each treatment were determined by averaging the number of cells in 5 random 100 μm^2 areas in a single image captured at a 4× magnification.
(§1) A student t-test was performed to determine statistical significance between means of each sample (p-value <0.05). Error bars in figures are standard error of the mean for n samples. Characterizing the edge lipid films produced a total of n=20 samples and middle lipid film measurements produced n=10 samples. Cell density experiments were performed in triplicates (n=3). All samples for cell migration were taken in triplicate and replicated three times (n=9).

HeLa cells [2] = test: Cell migration assay of HeLa cells on lipid multilayer films made by evaporative edge lithography; assay type: cell-based; conditions: for migration rate of HeLa cells versus lipid thickness: lipid only; for migration rate of HeLa cells versus lipid thickness / collective cell migration compared to control group: 24 hours; for HeLa cell migration (qualitative effect): drug delivered from encapsulated lipid films; for collective cell migration compared to control group: lipid encapsulated film
Description: Polydimethylsiloxane (PDMS) was cured from the SYLGARD® 184 silicone elastorner kit in a 60° C. oven overnight. PDMS strips of 15 mm long by 1 mm wide were placed between 500-800 μm apart on prepared glass coverslips before addition of lipid mixtures. 1,2-dioleoyl-3-trimethylammonium-propane (chloride salt) (DOTAP) and 1,2-dioleoyl-sn-glycerol-3-phosphoethanolamine-N-(lissamine rhodamine b sulfonyl) (ammonium salt) (DOPE-rhodamine) were purchased from Avanti Polar Lipids. To create lipid only solutions, DOTAP was mixed with 1 molar percent (mol %) DOPE-rhodamine in chloroform and dried overnight in a vacuum pump desiccators at 16 LM 15 Torr 7.4 PSIG to remove solvent. Ethanol (100%) was added to suspend dried lipid powder and 1 μl was deposited in each PDMS channel and the array was dried overnight in a vacuum to remove residual ethanol. A similar procedure was used for docetaxel encapsulated lipid solutions and the drug was dissolved in ethanol prior to adding to the dried lipid powder.
The prepared assays on glass coverslips were placed individually wells of a 6-well plate for cell culture. For experiments, cells were seeded onto the prepared patterned glass coverslips by gently pipetting the cell suspension (2.5×10^5 cells/ml, 1 ml per coverslip) directly over each PDMS channel to allow cells to settle in them. The same method was used to seed other parts of the slide for use as control areas. Cells were allowed to settle for 1-2 hours before the PDMS barriers were removed to promote cell migration. After barrier removal, the coverslips were washed once with HBSS and replaced with fresh growth media. The cells were incubated over the patterned areas for up to 24 hours. Width of each cell strip was measure by hand with Nikon Elements 4.0 analysis software and the average migration rate for each strip was determined with the following equation: Migration Rate (μm/hr)=(WidthT=24 hrs−WidthT=0 hrs/24hrs.
Width is the average width in micrometers (μm) of the cell monolayer measured either at the beginning of the experiment (T=0 hrs) or at the end (T=24 hours).
The images for cell migration were captured on a Nikon Ti Eclipse inverted microscope with 4× or 10× objectives. Images for cell migration were taken after barrier removal and once again 24 hours after incubation period in phase contrast. Fluorescent filters used were B-2E/C and G-2E/C for red and green emitting dyes.
as §1

[3] = cited from earlier work
[4] = cited from earlier work; remark: listed apart in the source

Compound	HeLa cell adhesion to lipid films compared to untreated glass (HeLa cells [1]; concentrations higher than 20 μg/ml, 2 hours of incubation)	HeLa cell adhesion to lipid films (HeLa cells [1]; films created from 20 ng (initial solution 20 μg/ml) or lower, 2 hours of incubation)	HeLa cell morphology and viability on lipid multilayers (HeLa cells [1]; lipid multilayers created from 200 ng of lipids or more, compared to thinner multilayers)	migration rate of HeLa cells versus lipid thickness (HeLa cells [2]; channels from lipid solutions of 20 μg/ml or lower)	migration rate of HeLa cells versus lipid thickness (HeLa cells [2]; lipid solutions above 20 μg/ml)	HeLa cell migration (qualitative effect) (HeLa cells [2])	log P [3]	migration rate of the cells, dose dependence (HeLa cells [2]; delivered by encapsulated lipid films, over 24 hours)	collective cell migration compared to control group (HeLa cells [2]; docetaxel to lipid ratio (by mass) 1:2)	collective cell migration compared to control group (HeLa cells [2]; docetaxel to lipid ratio (by mass) 1:4)	collective cell migration compared to control group (HeLa cells [2]; docetaxel to lipid ratio (by mass) 1:10)	solubility in water [4]
CCCCCCCC/C=C\CCCCCCCC(=O)OCC(C[N+](C)(C)C)OC(=O)CCCCCCC/C=C\CCCCCCCC.[Cl-] (stereo not shown) [DOTAP, 1,2-dioleoyl-3-trimethylammonium-propane (chloride salt)]	adhere significantly less (p<0.05)	adherent	exhibited abnormal morphology and appeared dead	not significantly (p<0.05) affected	significantly hindered							
C[C@H]1CCC/C=C/[C@@H]2C[C@H](O)C[C@H]2[C@H](O)/C=C/C(=O)O1 [brefeldin A]						inhibited	1.61					
CC(=O)O[C@@]12CO[C@@H]1C[C@H](O)[C@@]1(C)C(=O)[C@H](O)C3=C(C)[C@@H](OC(=O)[C@H](O)[C@@H](NC(=O)OC(C)(C)C)c4ccccc4)C[C@@](O)([C@@H](OC(=O)c4ccccc4)[C@H]21)C3(C)C [docetaxel]						significantly inhibit cellular migration; also recorded: inhibited		reduced the migration rate of the cells dose-dependently	significantly (p<0.05) reduce collective cell migration	significantly (p<0.05) reduce collective cell migration	significantly (p<0.05) reduce collective cell migration	less than 0.025 mg/L
